Results on twelve molecules are retold here after patent US20240174634A1, “Aldehyde Dehydrogenase Inhibitors and Their Therapeutic Use” (priority 2020, published 2024).

Molecules are shown by their SMILES.

Data set [1] can be described thus: In vivo pharmacokinetics in female BALB/c mice. More on the design: species or system mouse. The conditions noted are these: for AUC / Cmax: po, 5 mg/kg orally by gavage. The procedure: All procedures involving animals were performed in accordance with national Home Office regulations under the Animals (Scientific Procedures) Act 1986 and within guidelines set out by the Institute's Animal Ethics Committee and the United Kingdom Coordinating Committee for Cancer Research's ad hoc Committee on the Welfare of Animals in Experimental Neoplasia. Female BALB/c mice (Charles River Laboratories) at 6 weeks of age were used for the PK analyses. The mice were dosed orally by gavage (5 mg/kg in DMSO:water 1:19 v:v; n=6) or intravenously in the tail vein (1 mg/kg in DMSO:Tween20:saline 10:1:89 v:v:v; n=6). Blood samples (˜20 μL) were taken from the tail vein from each group of mice (2 groups, 3 mice/group) alternated at 5, 15 and 30 minutes, 1, 2, 4 and 6 and 8 hours after dosing. For clarity, group 1 was bled at 5 minutes, 30 minutes, 2 hours and 6 hours; group 2 was bled at 15 minutes, 1 hour, 4 hours and 8 hours. Plasma samples were snap frozen in liquid nitrogen and then stored at −80° C. prior to analysis.
Test compound solutions (1 mg/mL in DMSO) were used to make stock Standard Curve (SC) and Quality Control (QC) solutions at appropriate concentrations. Blank plasma was spiked with stock solutions to produce a 9-point standard curve ranging from 1.5-10,000 […]; with 2 QC concentrations within this range and where the DMSO concentration was 10% of the plasma volume. Plasma PK samples, Standards and QC's were added to individual Eppendorf tubes and DMSO (10% of plasma volume) was added to the plasma PK samples. SC, QC and plasma samples were extracted with methanol (100 μL) containing internal standard. Following protein precipitation, the samples were centrifuged for 10 minutes in a refrigerated centrifuge (4° C.) at 14000 rpm. The supernatants were removed to a 96-well plate and centrifuged for a further 10 minutes in a refrigerated centrifuge (4° C.) at 3700 rpm. Samples were analysed by Liquid Chromatography Mass Spectrometry (LC-MS/MS) for the compound plasma concentrations. Non-compartmental analysis was performed on plasma concentration data using the Excel macro PK Solver 2.0.

The target of data set [2] is T1, ALDH2 (Homo sapiens, UniProt P05091).
T1 sequence (P05091 18-517): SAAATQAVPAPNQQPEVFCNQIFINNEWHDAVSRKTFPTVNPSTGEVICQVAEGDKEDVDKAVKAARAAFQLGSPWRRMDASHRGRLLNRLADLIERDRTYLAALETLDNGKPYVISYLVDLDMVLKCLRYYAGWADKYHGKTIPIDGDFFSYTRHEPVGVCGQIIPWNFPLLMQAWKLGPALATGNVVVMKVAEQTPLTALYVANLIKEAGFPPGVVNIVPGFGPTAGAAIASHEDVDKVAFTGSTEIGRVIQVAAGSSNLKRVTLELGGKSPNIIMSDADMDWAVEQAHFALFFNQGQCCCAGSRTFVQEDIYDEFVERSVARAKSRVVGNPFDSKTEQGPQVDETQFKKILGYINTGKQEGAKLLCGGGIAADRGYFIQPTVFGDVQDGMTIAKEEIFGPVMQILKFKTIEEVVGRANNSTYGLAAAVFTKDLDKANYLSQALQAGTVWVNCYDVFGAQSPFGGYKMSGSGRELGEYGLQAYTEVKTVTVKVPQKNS
Briefly: Selectivity biochemical assay, NAD(P)H-Glo Detection System. As for the experimental part:
Materials: ALDH2 was purchased from Abnova. Tris(hydroxymethyl)aminomethane (Tris) was purchased from MP Biomedicals. TCEP, ethylenediaminetetraacetic acid (EDTA), propionaldehyde, DMSO and Tween-20 were purchased from Sigma. Nicotinamide adenine dinucleotide (NAD) was obtained from Abcam. The NAD(P)H-Glo™ Detection System was purchased from Promega. White, non-binding surface, 384 well plates were supplied by Corning (#3574).
Method: Inhibition of ALDH1A3 was assessed using the NAD(P)H-Glo™ Detection System (Cat. No. G9062) from Promega. This assay detects the production of NADH from NAD by ALDH1A3 via the coupled enzymatic conversion of a proluciferin reductase substrate to generate a luminescent signal. Inhibition of ALDH1A3 by small molecule inhibitors will result in reduction or abrogation of luminescence signal increase above background. Inhibition of ALDH1A1, ALDH1A2 and ALDH2 (selectivity assays) were assessed using the same assay.
Compounds were dosed into Corning 384 well assay plates using an Echo acoustic dispenser to give 10 point curves in a 3-fold dilution series. Compounds were dispensed from a 20 mM DMSO stock and initially screened at a top concentration of 20 μM (ALDH1A3) or 250 μM (ALDH1A1, ALDH1A2 & ALDH2). Enzyme was added to the plate in a 5 μL volume, according to the final concentrations in table 1 below, and pre-incubated with compound for 30 minutes at room temperature before the addition of 5 μL of the substrate (propionaldehyde) and cofactor (NAD), to effect final concentrations equal to the Km as shown in Table 1. The assay buffer used consisted of 40 mM Tris for 1A1 (pH 7.6), 1A2 (pH 7.6) and 1A3 (pH 9.0) and 10 mM Tris for ALDH2 (pH 8.0) supplemented with 1 mM TCEP, 0.01% Tween-20, 0.1 mM EDTA. The reaction mix was incubated at 26° C. on a shaking incubator for 30 minutes before being stopped by the addition of 10 μL of the Promega detection reagent and 100×IC50 of inhibitors of the respective isoforms. After stopping the reaction the plate was incubated for 60 minutes at room temperature and the luminescence signal read on a PheraStar FS microplate reader (BMG Labtech) and resulting IC50 values were calculated using Dotmatics software.
Enzyme, substrate and cofactor concentrations were selected to ensure the reaction ran under initial velocity conditions.

As a reminder, the AUC is concentration integrated over time. By Cmax is commonly meant the maximum level reached in the sampled fluid or tissue. The term IC50 denotes the concentration needed to halve the response being measured. Low values mean greater potency in that assay, high ones weaker potency in that assay.

On to `O=C1CCc2cc(NC(=O)c3scnc3-c3cccc(F)c3)ccc2N1` [ALDHI-1003, 4-(3-fluorophenyl)-N-(2-oxo-3,4-dihydro-1H-quinolin-6-yl)thiazole-5-carboxamide], for which the F in data set [1] (5 mg/kg po vs 1 mg/kg iv) is given as 100%. Besides, the clearance in data set [1] (mouse, plasma, iv, 1 mg/kg intravenously, read-out: Cl iv) amounted to 22.1 mL/min/kg. In data set [1] (mouse, plasma), this molecule registered an AUC of 13.3 µM·h and a Cmax of 6.1 µM. For the same molecule, in data set [2], the half-inhibitory concentration (IC50) is ≥ 100 µM.

In data set [1] (mouse, plasma), `CN(CCOc1ccc2c(c1)CCC(=O)N2)C(=O)c1cccc(F)c1` [ALDHI-3008, 3-fluoro-N-methyl-N-[2-[(2-oxo-3,4-dihydro-1H-quinolin-6-yl)oxy]ethyl]benzamide] returned an AUC of 1.5 µM·h and a Cmax of 1.8 µM. The IC50 in data set [2] was ≥ 100 µM.

In the case of `CN(CCOc1ccc2c(c1)CCC(=O)N2)C(=O)c1cccnc1` [ALDHI-3013, N-methyl-N-[2-[(2-oxo-3,4-dihydro-1H-quinolin-6-yl)oxy]ethyl]pyridine-3-carboxamide], the IC50 in data set [2] was ≥ 100 µM.

Turning to `C[C@@H](c1ccccc1)N(CCO)CCOc1ccc2c(c1)CCC(=O)N2` [ALDHI-3007, 6-[2-[2-hydroxyethyl-[(1S)-1-phenylethyl]amino]ethoxy]-3,4-dihydro-1H-quinolin-2-one], the IC50 in data set [2] was ≥ 100 µM.

Take `O=C1CCc2cc(OCCN3CCCCC3c3cccc(F)c3)ccc2N1` (stereo not drawn) [ALDHI-2038, 6-[2-[2-(3-fluorophenyl)-1-piperidyl]ethoxy]-3,4-dihydro-1H-quinolin-2-one]: in data set [2], the IC50 is ≥ 100 µM.

For `CC1Oc2cc(OCCN3CCCC3c3cccc(F)c3)ccc2NC1=O` (stereo not drawn) [ALDHI-2044, 7-[2-[2-(3-fluorophenyl)pyrrolidin-1-yl]ethoxy]-2-methyl-4H-1,4-benzoxazin-3-one], in data set [2], the IC50 was ≥ 100 µM.

On to `CN(CCOc1ccc2c(c1)CCC(=O)N2)C(CO)c1cccc(F)c1` (stereo not drawn) [ALDHI-3003, 6-[2-[[1-(3-fluorophenyl)-2-hydroxy-ethyl]-methyl-amino]ethoxy]-3,4-dihydro-1H-quinolin-2-one], for which the IC50 in data set [2] is ≥ 100 µM.

Take `CCN(CC)CCN(CCOc1ccc2c(c1)CCC(=O)N2)Cc1ccccc1` [ALDHI-3004, 6-[2-[benzyl-[2-(diethylamino)ethyl]amino]ethoxy]-3,4-dihydro-1H-quinolin-2-one]: the IC50 in data set [2] is ≥ 100 µM.

In the case of `O=C1CCc2cc(OCCN3CCCC3c3cccc(F)c3)c(F)cc2N1` (stereo not drawn) [ALDHI-2050, 7-fluoro-6-[2-[2-(3-fluorophenyl)pyrrolidin-1-yl]ethoxy]-3,4-dihydro-1H-quinolin-2-one], in data set [2], the IC50 was ≥ 100 µM.

In the case of `O=C1CCc2cc(OCCn3ccnc3-c3ccccc3)ccc2N1` [ALDHI-2041, 6-[2-(2-phenylimidazol-1-yl)ethoxy]-3,4-dihydro-1H-quinolin-2-one], the 50% inhibitory concentration (IC50) in data set [2] was ≥ 100 µM.

Turning to `CCn1cc(C2CCCN2CCOc2ccc3c(c2)CCC(=O)N3)cn1` (stereo not drawn) [ALDHI-2016, 6-[2-[2-(1-ethylpyrazol-4-yl)pyrrolidin-1-yl]ethoxy]-3,4-dihydro-1H-quinolin-2-one], in data set [2], the IC50 is ≥ 100 µM.

For `CN(CCOc1ccc2c(c1)CCC(=O)N2)Cc1cccc(F)c1` [ALDHI-3001, 6-[2-[(3-fluorophenyl)methyl-methyl-amino]ethoxy]-3,4-dihydro-1H-quinolin-2-one], the IC50 in data set [2] was ≥ 100 µM.
